Test results as given in ChEMBL document CHEMBL1146285, “Trimethylsilylpyrazoles as novel inhibitors of p38 MAP kinase: a new use of silicon bioisosteres in medicinal chemistry” (Bioorg Med Chem Lett, 2007).

Assays:
[1] = Partition coefficient, log P of the compound; type: physicochemical; details: octanol/water
[2] = Distribution coefficient, log D at pH 6.0; type: physicochemical; details: octanol/water
[3] = Distribution coefficient, log D at pH 6.5; type: physicochemical; details: octanol/water
[4] = Distribution coefficient, log D at pH 7.4; type: physicochemical; details: octanol/water
[5] = Metabolic stability in human liver microsomes at 1 uM after 40 mins; type: ADME, Microsome; details: read-out: Stability
[6] = system: Mus musculus; assay: Suppression of lipopolysaccharide-induced TNFalpha release in mouse at 10 mg/kg, po after 30 mins; type: functional
[7] = system: Mus musculus; assay: Suppression of lipopolysaccharide-induced TNFalpha release in mouse at 10 mg/kg, po after 120 mins; type: functional

Question: With `Cc1ccc(-n2nc(C(C)(C)C)cc2NC(=O)Nc2ccc(OCCN3CCOCC3)c3ccccc23)cc1` [DORAMAPIMOD] as the compound, how does the logP [1] read?
Answer: 5.2

Question: And the logD [2]?
Answer: 4.6

Question: What about the logD [3] of the same compound?
Answer: 4.9

Question: And the logD [4]?
Answer: 5.1

Question: What about the remaining at 40 min, 1 µM [5] of the same compound?
Answer: 79%

Question: What about the Activity [6] of the same compound?
Answer: -41%

Question: What about the Activity [7] of the same compound?
Answer: -40%
